Measurements taken from ChEMBL document CHEMBL3351364 (J Med Chem, 2014).
pEC50: −log10 of the molar value.

How the values were obtained:
[1] = Lipophilicity, log P of the compound; format: physicochemical; details: octanol/water
[2] = Oral bioavailability in beagle dog at 2.3 mg/kg; format: ADME, organism-based, Canis lupus familiaris; details: in vivo
[3] = Oral bioavailability in Sprague-Dawley rat at 5 mg/kg; format: ADME, organism-based; details: in vivo
Hepatitis C virus [4] = assay: Antiviral activity against HCV genotype 1b infected in human Huh7 cells after 3 days by cell-based replicon assay; format: functional, Hepacivirus hominis; details: Huh-7, 72 h
[5] = Half life in Sprague-Dawley rat at 3 mg/kg, po; format: ADME, organism-based; design: dose 3 mg/kg, route oral; details: in vivo
[6] = Cmax in monkey at 3 mg/kg, po; format: ADME, organism-based, Macaca mulatta; design: dose 3 mg/kg, route oral; details: rhesus monkey, in vivo
[7] = Cmax in Sprague-Dawley rat at 3 mg/kg, po; format: ADME, organism-based; design: dose 3 mg/kg, route oral; details: in vivo
[8] = Half life in monkey at 3 mg/kg, po; format: ADME, organism-based, Macaca mulatta; design: dose 3 mg/kg, route oral; details: rhesus monkey, in vivo
[9] = Half life in beagle dog at 1 mg/kg, iv as 30 mins infusion; format: ADME, organism-based, Canis lupus familiaris; design: dose 1 mg/kg, route intravenous; details: in vivo
[10] = Oral bioavailability in Sprague-Dawley rat at 30 mg/kg; format: ADME, organism-based; details: in vivo
[11] = Half life in Sprague-Dawley rat at 5 mg/kg, iv as 30 mins infusion; format: ADME, organism-based; design: dose 5 mg/kg, route intravenous; details: in vivo
[12] = Half life in monkey at 1 mg/kg, iv as 30 mins infusion; format: ADME, organism-based, Macaca mulatta; design: dose 1 mg/kg, route intravenous; details: rhesus monkey, in vivo
[13] = Oral bioavailability in beagle dog at 2 mg/kg; format: ADME, organism-based, Canis lupus familiaris; details: in vivo
Hepatitis C virus [14] = assay: Antiviral activity against HCV genotype 1b infected in human Huh7 cells after 3 days by cell-based replicon assay in presence of 10% fetal bovine serum; format: functional, Hepacivirus hominis; details: Huh-7, 72 h
Hepatitis C virus [15] = assay: Antiviral activity against HCV genotype 1b infected in human Huh7 cells after 3 days by cell-based replicon assay in presence of 40% normal human serum; format: functional, Hepacivirus hominis; details: Huh-7, 72 h
[16] = Cytotoxicity against human HuH7 cells; format: cell-based, Huh-7

**Q.** For COC(=O)N[C@H](C(=O)N1CCC[C@H]1c1ncc(-c2ccc(-c3ccc(-c4cnc([C@@H]5CCCN5C(=O)[C@@H](NC(=O)OC)C(C)C)[nH]4)cc3)cc2)[nH]1)C(C)C, which logP [1] is on record?
**A.** 6.33

**Q.** And the bioavailability [2]?
**A.** 58.5%

**Q.** What about the bioavailability [3] of the same molecule?
**A.** 50%

**Q.** And the pEC50 (Hepatitis C virus [4])?
**A.** 11.52

**Q.** What about the half-life [5] of the same molecule?
**A.** 1.5 h

**Q.** What about the Cmax [6] of the same molecule?
**A.** 500 nM

**Q.** What about the Cmax [7] of the same molecule?
**A.** 728 nM

**Q.** What about the half-life [8] of the same molecule?
**A.** 3 h

**Q.** With COC(=O)N[C@H](C(=O)N1CCC[C@H]1c1ncc(-c2ccc(-c3ccc(-c4cnc([C@@H]5CC6(CN5C(=O)[C@@H](NC(=O)OC)C(C)C)OCCO6)[nH]4)cc3)cc2)[nH]1)C(C)C as the molecule, how does the pEC50 (Hepatitis C virus [4]) read?
**A.** 11.13

**Q.** With CN(C)[C@@H](C(=O)N1CCC[C@H]1c1nc2cc(-c3cnc(-c4ccc5[nH]c([C@@H]6CCCN6C(=O)[C@@H](c6ccccc6)N(C)C)nc5c4)o3)ccc2[nH]1)c1ccccc1 as the molecule, how does the pEC50 (Hepatitis C virus [4]) read?
**A.** > 8.34

**Q.** With COC(=O)N[C@H](C(=O)N1CCC[C@H]1c1ncc(-c2ccc(-c3csc4c(-c5ccc6[nH]c([C@@H]7CCCN7C(=O)[C@H](NC(=O)OC)c7ccccc7)nc6c5)csc34)cc2)[nH]1)C(C)C as the molecule, how does the pEC50 (Hepatitis C virus [4]) read?
**A.** 11.52

**Q.** With COC(=O)N[C@@H](C(=O)N1CCC[C@H]1c1nc2ccc(C#Cc3ccc4nc([C@@H]5CCCN5C(=O)[C@H](NC(=O)OC)C(C)C)[nH]c4c3)cc2[nH]1)C(C)C as the molecule, how does the pEC50 (Hepatitis C virus [4]) read?
**A.** 10.26

**Q.** With COC(=O)N[C@@H](C(=O)N1CCC[C@H]1c1ncc(C#CC#Cc2cnc([C@@H]3CCCN3C(=O)[C@H](NC(=O)OC)C(C)C)[nH]2)[nH]1)C(C)C as the molecule, how does the pEC50 (Hepatitis C virus [4]) read?
**A.** 8.88

**Q.** With COC(=O)N[C@@H](C(=O)N1CCC[C@H]1c1ncc(-c2ccc(C#CC#Cc3ccc(-c4cnc([C@@H]5CCCN5C(=O)[C@H](NC(=O)OC)C(C)C)[nH]4)cc3)cc2)[nH]1)C(C)C as the molecule, how does the pEC50 (Hepatitis C virus [4]) read?
**A.** 9.42

**Q.** With COC(=O)N[C@@H](C(=O)N1CCC[C@H]1c1nc2ccc(C#CC#Cc3ccc4nc([C@@H]5CCCN5C(=O)[C@H](NC(=O)OC)C(C)C)[nH]c4c3)cc2[nH]1)C(C)C as the molecule, how does the pEC50 (Hepatitis C virus [4]) read?
**A.** 11.05

**Q.** Which logP [1] does the source give for COC(=O)N[C@@H](C(=O)N1CCC[C@H]1c1ncc(-c2ccc3c(c2)O[C@@H](c2ccccc2)n2c-3cc3cc(-c4cnc([C@@H]5CCCN5C(=O)[C@H](NC(=O)OC)C(C)C)[nH]4)ccc32)[nH]1)C(C)C here?
**A.** 8.61

**Q.** What about the half-life [9] of the same molecule?
**A.** 4.7 h

**Q.** What about the pEC50 (Hepatitis C virus [4]) of the same molecule?
**A.** 11.52

**Q.** What about the bioavailability [10] of the same molecule?
**A.** 9%

**Q.** What about the half-life [11] of the same molecule?
**A.** 4.2 h

**Q.** What about the half-life [12] of the same molecule?
**A.** 16 h

**Q.** And the bioavailability [13]?
**A.** 35%

**Q.** Which results are given for COC(=O)N[C@H](C(=O)N1CCC[C@@H]1c1ncc(-c2ccc(C#CC#Cc3cnc([C@H]4CCCN4C(=O)[C@H](NC(=O)OC)C(C)C)[nH]3)cc2)[nH]1)C(C)C?
**A.** pEC50 (Hepatitis C virus [14]): 9.39; pEC50 (Hepatitis C virus [15]): 9.13; CC50 [16]: 30300 nM

**Q.** With COC(=O)N[C@H](C(=O)N1CCC[C@@H]1c1ncc(C#CC#Cc2ccc(-c3cnc([C@H]4CCCN4C(=O)[C@H](NC(=O)OC)C(C)C)[nH]3)cc2)[nH]1)C(C)C (single isomer, unassigned) as the molecule, how does the pEC50 (Hepatitis C virus [14]) read?
**A.** 10.10

**Q.** And the pEC50 (Hepatitis C virus [15])?
**A.** 9.61

**Q.** And the CC50 [16]?
**A.** 24700 nM

**Q.** With COC(=O)N[C@@H](C(=O)N1CCCC1c1ncc(C#CC#Cc2ccc(-c3cnc(C4CCCN4C(=O)[C@H](NC(=O)OC)C(C)C)[nH]3)cc2)[nH]1)C(C)C (single isomer, unassigned; 13b) as the molecule, how does the pEC50 (Hepatitis C virus [14]) read?
**A.** 7.33

**Q.** What about the pEC50 (Hepatitis C virus [15]) of the same molecule?
**A.** 6.86

**Q.** And the CC50 [16]?
**A.** 298000 nM

**Q.** With COC(=O)N[C@H](C(=O)N1CCCC1c1ncc(C#CC#Cc2ccc(-c3cnc(C4CCCN4C(=O)[C@@H](NC(=O)OC)C(C)C)[nH]3)cc2)[nH]1)C(C)C (single isomer, unassigned; 13i) as the molecule, how does the pEC50 (Hepatitis C virus [14]) read?
**A.** 8.27

**Q.** And the pEC50 (Hepatitis C virus [15])?
**A.** 7.44

**Q.** And the CC50 [16]?
**A.** 34700 nM

**Q.** Which results are given for COC(=O)N[C@H](C(=O)N1CCCC1c1ncc(C#CC#Cc2ccc(-c3cnc(C4CCCN4C(=O)[C@@H](NC(=O)OC)C(C)C)[nH]3)cc2)[nH]1)C(C)C (single isomer, unassigned; 13j)?
**A.** pEC50 (Hepatitis C virus [14]): 5.05; pEC50 (Hepatitis C virus [15]): 5.16; CC50 [16]: 59700 nM

**Q.** Which results are given for COC(=O)N[C@@H](C(=O)N1CCCC1c1ncc(C#CC#Cc2ccc(-c3cnc(C4CCCN4C(=O)[C@H](NC(=O)OC)C(C)C)[nH]3)cc2)[nH]1)C(C)C (single isomer, unassigned; 13k)?
**A.** pEC50 (Hepatitis C virus [14]): 6.00; pEC50 (Hepatitis C virus [15]): 5.13; CC50 [16]: 108000 nM
